Patent US20050137252A1, “Production of dihydronepetalactone” (priority 2003, published 2005)

Test system: Aedes aegypti mosquitoes
Experiment: in vitro Gupta box landing assay (insect repellency)
Settings: 1% in IPA, 25 μl on Baudruche membrane over bovine blood at 37° C.; about 250 4-day-old female mosquitoes; probing recorded at 2 minute intervals over 20 minutes; mean of three replicates; compared with prior-art DHN materials
Procedure: The product of Example 1 is evaluated for insect repellency in a comparison test with DHN stereoisomers prepared according to prior-art methods, and against the major commercial insect repellent composition, DEET (N,N-diethyl-m-toluamide). As a control, neat iso-propanol (IPA) is employed as well. Repellency is determined against Aedes aegypti mosqutioes in the in vitro Gupta box landing assay. In this method a chamber contains 5 wells, each covered by a Baudruche (animal intestine) membrane. Each well is filled with bovine blood, containing sodium citrate (to prevent clotting) and ATP (72 mg ATP disodium salt per 26 ml of blood), and heated to 37° C. A volume of 25 μl of isopropyl alcohol (IPA) containing one test specimen or control is applied to each membrane. The concentrations are all 1% in IPA except where otherwise indicated. Controls are either neat IPA, an untreated membrane surface, or a membrane surface treated with a 1% solution of DEET. After 5 min, approximately 250 4-day-old female Aedes aegypti mosquitoes are introduced into the chamber. The number of mosquitoes probing the membranes for each treatment is recorded at 2 minute intervals over 20 minutes. Each datum represents the mean of three replicate experiments.

Question: With `CC1COC(=O)C2C(C)CCC12` (single isomer, unassigned) [DHN Structure F] as the molecule, how does the “repellent efficacy (mean number of landings over elapsed time, FIG. 3)” value read?
Answer: Its value is “compared well in repellent efficacy”.
